For 17 compounds, IC50 results are on record in patent publication US10316049B2, “Tank-binding kinase inhibitor compounds” (Gilead Sciences, Inc., priority 2015, dated 2019).

The target of one test is T1, IKKε (Homo sapiens, UniProt Q14164).
T1 construct: TBK1 and IKKε were expressed and purified as full length recombinant proteins; made in house
T1 sequence (Q14164 1-716): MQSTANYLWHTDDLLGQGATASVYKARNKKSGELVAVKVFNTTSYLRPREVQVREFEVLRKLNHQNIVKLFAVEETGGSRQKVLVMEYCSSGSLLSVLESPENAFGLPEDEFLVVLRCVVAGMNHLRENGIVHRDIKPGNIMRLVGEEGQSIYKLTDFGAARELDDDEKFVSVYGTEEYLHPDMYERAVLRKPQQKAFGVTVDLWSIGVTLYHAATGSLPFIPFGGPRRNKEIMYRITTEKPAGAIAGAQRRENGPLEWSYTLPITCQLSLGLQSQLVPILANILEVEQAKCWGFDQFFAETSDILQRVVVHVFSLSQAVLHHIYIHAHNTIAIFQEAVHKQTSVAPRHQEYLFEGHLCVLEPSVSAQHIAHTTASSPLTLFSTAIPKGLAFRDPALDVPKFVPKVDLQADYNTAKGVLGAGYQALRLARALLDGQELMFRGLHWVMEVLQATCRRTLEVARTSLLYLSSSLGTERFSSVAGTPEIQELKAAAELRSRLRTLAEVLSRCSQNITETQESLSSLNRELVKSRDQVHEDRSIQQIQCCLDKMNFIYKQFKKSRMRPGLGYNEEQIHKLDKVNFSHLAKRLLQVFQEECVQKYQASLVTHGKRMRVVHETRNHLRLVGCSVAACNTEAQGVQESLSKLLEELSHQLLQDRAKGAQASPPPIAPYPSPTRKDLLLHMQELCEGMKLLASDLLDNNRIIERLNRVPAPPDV
As to the kind of experiment: TR-FRET enzymatic activity assay, IKKε. Further: full length recombinant IKKε at 0.3 nM. It counts as biochemical. Conditions: read-out: IKKϵ IC50. The method, then:
(§1) Biological Assay for TBK1 and IKKε:
Enzymatic activity of IKKε and TBK1 was measured using a homogeneous time resolved fluorescence resonance energy transfer (TR-FRET) assay that monitors enzyme dependent phosphorylation of a biotinylated serine/threonine peptide substrate. […] TBK1 and IKKε were expressed and purified as full length recombinant proteins. Detection reagents for the assay were purchased from Cisbio. […] After an assay reaction time of 240 minutes at 25° C., reactions were terminated with EDTA.
(§2) Amount of phosphorylated peptide was determined by the addition of 125 nM streptavidin XL665 and europium cryptate labeled anti-phospho monoclonal antibody and the resulting TR-FRET signal was recorded on an Envision plate reader (Ex: 340 nm; Em: 615/665 nm; 100 μs delay and 200 μs read window). Data was normalized based on a positive (1 μM Staurosporine) and negative (DMSO) controls and IC50 values calculated from the fit of the dose-response curves to a four-parameter equation. All IC50 values represent geometric mean values of a minimum of four determinations.

For another test, the target named is T2, TBK1 (Homo sapiens, UniProt Q9UHD2).
T2 construct: TBK1 and IKKε were expressed and purified as full length recombinant proteins; made in house
T2 sequence (Q9UHD2 1-729): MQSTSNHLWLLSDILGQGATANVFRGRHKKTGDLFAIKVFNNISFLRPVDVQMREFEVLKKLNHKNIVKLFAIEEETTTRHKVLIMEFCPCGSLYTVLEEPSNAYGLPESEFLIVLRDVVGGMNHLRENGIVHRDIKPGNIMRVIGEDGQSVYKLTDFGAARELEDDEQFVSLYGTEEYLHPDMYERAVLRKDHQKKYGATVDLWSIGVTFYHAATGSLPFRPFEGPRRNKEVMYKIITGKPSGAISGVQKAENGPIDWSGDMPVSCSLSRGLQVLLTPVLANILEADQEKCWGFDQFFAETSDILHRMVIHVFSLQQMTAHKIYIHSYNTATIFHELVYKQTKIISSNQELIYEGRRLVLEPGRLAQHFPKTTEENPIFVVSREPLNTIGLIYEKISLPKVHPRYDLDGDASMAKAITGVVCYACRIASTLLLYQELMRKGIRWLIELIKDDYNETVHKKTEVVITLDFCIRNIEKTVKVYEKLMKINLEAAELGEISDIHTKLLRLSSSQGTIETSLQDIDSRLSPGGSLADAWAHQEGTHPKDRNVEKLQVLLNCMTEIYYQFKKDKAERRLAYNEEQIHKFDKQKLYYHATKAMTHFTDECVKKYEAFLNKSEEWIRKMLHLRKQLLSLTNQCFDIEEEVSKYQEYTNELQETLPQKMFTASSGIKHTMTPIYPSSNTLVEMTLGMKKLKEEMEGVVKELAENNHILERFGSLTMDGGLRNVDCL
The test is described as follows: TR-FRET enzymatic activity assay, TBK1. Further: full length recombinant TBK1 at 2.5 nM. It counts as biochemical. The method, then:
as §1
Enzymatic activity of IKKε and TBK1 was measured using a homogeneous time resolved fluorescence resonance energy transfer (TR-FRET) assay that monitors enzyme dependent phosphorylation of a biotinylated serine/threonine peptide substrate. An increase in the amount of phosphorylated peptide results in an increase in TR-FRET signal. TBK1 and IKKε were expressed and purified as full length recombinant proteins. Detection reagents for the assay were purchased from Cisbio. […] After an assay reaction time of 240 minutes at 25° C., reactions were terminated with EDTA.
as §2, with “determinations. These assays generally produced results within 3-fold of the reported mean.” for “determinations.”

A value given as a limit tells only on which side of the number the result lay.

On to `N#Cc1cc(-c2ccnc(NC(=O)[C@@H]3C[C@@H]3C(N)=O)c2)ccc1O[C@H]1CCN(C(=O)CO)C[C@H]1F` (stereo in doubt) [Example 82, (1,2-cis)-N1-(4-(3-cyano-4-(((3R,4S)-3-fluoro-1-(2-hydroxyacetyl)piperidin-4-yl)oxy)phenyl)pyridin-2-yl)cyclopropane-1,2-dicarboxamide], for which the IC50 amounted to 857 nM on IKKε and 607 nM at TBK1.
Regarding `Cn1cc([C@H]2C[C@@H]2C(=O)Nc2cc(-c3ccc(O[C@H]4CCN(C(=O)CO)C[C@H]4F)c(C#N)c3)ccn2)cn1` [Example 126, (1S,2S)—N-(4-(3-Cyano-4-(((3R,4S)-3-fluoro-1-(2-hydroxyacetyl)piperidin-4-yl)oxy)phenyl)pyridin-2-yl)-2-(1-methyl-1H-pyrazol-4-yl)cyclopropane-1-carboxamide], the values for the IC50 at IKKε and against TBK1 were 14 nM and 5.7 nM, respectively.
Taken in the same sequence, the figures for `N#Cc1cc(-c2cc(NC(=O)C3CC3)ncn2)ccc1O[C@H]1CCN(C(=O)c2cnco2)C[C@H]1F` [Example 33, N-(6-(3-cyano-4-(((3R,4S)-3-fluoro-1-(oxazole-5-carbonyl)piperidin-4-yl)oxy)phenyl)pyrimidin-4-yl)cyclopropanecarboxamide] were 167 nM and 47.6 nM.
The like results for `Cn1ccnc1[C@@H]1C[C@H]1C(=O)Nc1cc(-c2ccc(O[C@H]3CCN(C(=O)CO)CC3(F)F)c(C#N)c2)ncn1` [Example 114, (1R,2R)—N-(6-(3-cyano-4-(((S)-3,3-difluoro-1-(2-hydroxyacetyl)piperidin-4-yl)oxy)phenyl)pyrimidin-4-yl)-2-(1-methyl-1H-imidazol-2-yl)cyclopropane-1-carboxamide] were, in that order, 36 nM and 181 nM.
Taken in the same sequence, the figures for `N#Cc1cc(-c2cc(NC(=O)C3CC3)ncn2)ccc1F` [Example 105, N-(6-(3-cyano-4-fluorophenyl)pyrimidin-4-yl)cyclopropanecarboxamide] were over 1000 nM and over 1000 nM.
As for `N#Cc1cc(-c2ccnc(NC(=O)C3CC3)c2)ccc1O[C@H]1CCN(C(=O)CO)C[C@H]1F` [Example 8, N-(4-(3-cyano-4-(((3R,4S)-3-fluoro-1-(2-hydroxyacetyl)piperidin-4-yl)oxy)phenyl)pyridin-2-yl)cyclopropanecarboxamide], the IC50 on IKKε was 25.1 nM; at TBK1 it was 10.4 nM.
The like results for `Cc1ncc(C(=O)N2CC[C@H](Oc3ccc(-c4cc(NC(=O)C5CC5)ncn4)cc3C#N)[C@H](F)C2)o1` [Example 107, N-(6-(3-cyano-4-(((3R,4S)-3-fluoro-1-(2-methyloxazole-5-carbonyl)piperidin-4-yl)oxy)phenyl)pyrimidin-4-yl)cyclopropanecarboxamide] were, in that order, 160 nM and 48.9 nM.
The like results for `N#Cc1cc(-c2ccnc(NC(=O)C3CC3)c2)ccc1O[C@H]1CCN(C(=O)[C@@H](O)CO)CC1(F)F` [Example 157, N-(4-(3-cyano-4-(((S)-1-((S)-2,3-dihydroxypropanoyl)-3,3-difluoropiperidin-4-yl)oxy)phenyl)pyridin-2-yl)cyclopropanecarboxamide] were, in that order, 4.7 nM and 4.4 nM.
Taken in the same sequence, the figures for `N#Cc1cc(-c2ccnc(NC(=O)[C@H]3C[C@@H]3c3cccnc3)c2)ccc1OC1CCOCC1` (relative stereo) [Example 100, (1,2-trans)-N-(4-(3-cyano-4-((tetrahydro-2H-pyran-4-yl)oxy)phenyl)pyridin-2-yl)-2-(pyridin-3-yl)cyclopropane-1-carboxamide] were 130 nM and 20.3 nM.
As to `N#Cc1cc(-c2ccnc(NC(=O)[C@@H]3C[C@H]3C(=O)N3CC(O)C3)c2)ccc1OC1CCOCC1` (relative stereo) [Example 45, (1,2-trans)-N-(4-(3-cyano-4-((tetrahydro-2H-pyran-4-yl)oxy)phenyl)pyridin-2-yl)-2-(3-hydroxyazetidine-1-carbonyl)cyclopropane-1-carboxamide], the figures for the IC50 at IKKε and on TBK1 were 427 nM and 444 nM, respectively.
The like results for `N#Cc1cc(-c2cc(NC(=O)C3CC3)ncc2F)ccc1OC1CCOCC1` [Example 4, N-(4-(3-cyano-4-((tetrahydro-2H-pyran-4-yl)oxy)phenyl)-5-fluoropyridin-2-yl)cyclopropanecarboxamide] were, in that order, 327 nM and 43.6 nM.
Taken in the same sequence, the figures for `Cn1cnc(C2CC2C(=O)Nc2cc(-c3ccc(O[C@H]4CCN(C(=O)CO)C[C@H]4F)c(C#N)c3)ccn2)n1` (stereo partly drawn) [Example 145, N-(4-(3-Cyano-4-(((3R,4S)-3-fluoro-1-(2-hydroxyacetyl)piperidin-4-yl)oxy)phenyl)pyridin-2-yl)-2-(1-methyl-1H-1,2,4-triazol-3-yl)cyclopropane-1-carboxamide] were over 1000 nM and over 1000 nM.
The like results for `N#Cc1cc(-c2ccnc(NC(=O)[C@H]3C[C@@H]3c3ccc(OC(F)(F)F)cc3)c2)ccc1OC1CCOCC1` (relative stereo) [Example 99, (1,2-trans)-N-(4-(3-cyano-4-((tetrahydro-2H-pyran-4-yl)oxy)phenyl)pyridin-2-yl)-2-(4-(trifluoromethoxy)phenyl)cyclopropane-1-carboxamide] were, in that order, over 1000 nM and over 1000 nM.
For `N#Cc1cc(-c2ccnc(NC(=O)C3(O)CC3)c2)ccc1OC1CCOCC1` [Example 36, N-(4-(3-cyano-4-((tetrahydro-2H-pyran-4-yl)oxy)phenyl)pyridin-2-yl)-1-hydroxycyclopropanecarboxamide], the IC50 at IKKε and at TBK1 was over 1000 nM each time.
As for `N#Cc1cc(-c2ccnc(NC(=O)C3CC3)c2)ccc1N1CCC[C@H]1C(=O)O` [Example 26, (2-Cyano-4-(2-(cyclopropanecarboxamido)pyridin-4-yl)phenyl)-L-proline], the IC50 at IKKε is over 1000 nM; against TBK1, 755 nM.
Consider `N#Cc1cc(-c2ccnc(NC(=O)[C@@H]3C[C@H]3C#N)c2)ccc1OC1CCOCC1` (relative stereo) [Example 116, (1,2-Trans)-2-cyano-N-(4-(3-cyano-4-((tetrahydro-2H-pyran-4-yl)oxy)phenyl)pyridin-2-yl)cyclopropane-1-carboxamide], for which the values for the IC50 at IKKε and against TBK1 were 471 nM and 181 nM, respectively.
On to `CC(Oc1ccc(-c2cc(NC(=O)C3CC3)ncn2)cc1C#N)C(F)(F)F` (stereo not shown) [Example 106, N-(6-(3-cyano-4-((1,1,1-trifluoropropan-2-yl)oxy)phenyl)pyrimidin-4-yl)cyclopropanecarboxamide], for which the values for the IC50 on IKKε and against TBK1 were over 1000 nM and 301 nM, respectively.
